From patent US5635510A, “Substituted pyrrolidin-3-yl-alkyl-piperidines” (Merrell Pharmaceuticals Inc., priority 1994, dated 1997)

What was measured:
NK1 receptor [1] = biological target: T1, NK1 receptor (Homo sapiens, UniProt P25103); experiment: Antagonism of NK1 receptor mediated (SP-induced) phosphatidylinositol turnover in UC11 cells; type: cell-based
T1 construct: antagonizes both NK1 (on UC11 cells); endogenous in cells; host or cells: UC11 cells
Description: (§1) Tachykinin-mediated inositol phosphate accumulation was measured in UC11 or SKLKB82#3 cells in the presence and absence of NK1 or NK2 receptor antagonists, respectively. Tissues were incubated in Krebs-Henseleit buffer at 37° C. with 95% O2 -5% CO2 gassing. Tissues were then incubated with fresh buffer containing 100 μCi of myo-[2-3H(N)] inositol at 37° C. for 60 min with gentle gassing. After washing twice in 5 ml room temperature buffer containing 10 mM LiCl, tissues were incubated for 30 min at room temperature with a buffer change at 15 min. Buffer was removed and Krebs-Henseleit buffer (containing 40 μg/ml bacitracin, 4 μg/ml each of leupeptin and chymostatin, 0.1% bovine serum albumin and 10 mM each of thiorphan and LiCl) added. After 15 min, SP was added to UC11 cells or NKA to SKLKB82#3 cells at various concentrations to start the reaction. After incubation for 60 min at room temperature the reaction was terminated by addition of 930 μl chloroform: methanol (1:2 by volume) to each tube, followed by 310 μl chloroform and 310 μl doubly distilled water. Samples were vortexed, centrifuged, and 0.9 ml of the aqueous (top) phase removed and added to 2 ml ddH2 O. The mixture was vortexed and loaded onto a 50% Bio-Rad AG 1-X8 (formate form, 100-200 mesh) exchange column (Bio-Rad Laboratories, Hercules, Calif.). The columns were washed, in order, with: 1) 10 ml doubly distilled water, 2) 5 ml of 5 mM disodium tetraborate/60 mM sodium formate, and 3) 5 ml of 1M ammonium formate/0.1M formic acid. The third elution was collected and 1 ml counted in 7 ml scintillation fluid. A 50 μl aliquot of the organic (bottom) phase was removed, dried in a scintillation vial and counted in 7 ml scintillation fluid.
(§2) The ratio of DPM in the aqueous phase aliquot (total inositol phosphates) to the DPM in the 50 μl organic phase aliquot (total [^3 H]inositol incorporated) was calculated for each sample. Data are expressed as a percent of agonist-induced accumulation of [^3 H]-inositol phosphates over basal levels. The ratios in the presence of test compound and/or standards were compared to the ratios for control samples (i.e. no stimulating agonist). Dose-response graphs were constructed and the abilities of the test compounds to inhibit tachykinin-induced phosphatidyinositol turnover determined with the aid of a computer program. […] Data is expressed as percent stimulation of total inositol phosphate accumulation over basal levels and normalized to the maximum response produced by SP. […] Schild analysis is performed using dose response curves (such as those presented in FIGS. 1a and 1b) to obtain a value indicative of the strength of a competitive antagonist and is expressed as the pA2, which is the negative logarithm of the molar concentration of antagonist which reduces the effect of a dose of agonist to one-half of that expected at the dose of agonist.

NK2 receptor = biological target: T2, NK2 receptor (Bos taurus, UniProt P05363); experiment: Antagonism of NK2 receptor mediated (NKA-induced) phosphatidylinositol turnover in SKLKB82#3 cells; type: cell-based
T2 construct: expressed in transfected cells; host or cells: SKLKB82#3 cells
T2 sequence (P05363 1-384): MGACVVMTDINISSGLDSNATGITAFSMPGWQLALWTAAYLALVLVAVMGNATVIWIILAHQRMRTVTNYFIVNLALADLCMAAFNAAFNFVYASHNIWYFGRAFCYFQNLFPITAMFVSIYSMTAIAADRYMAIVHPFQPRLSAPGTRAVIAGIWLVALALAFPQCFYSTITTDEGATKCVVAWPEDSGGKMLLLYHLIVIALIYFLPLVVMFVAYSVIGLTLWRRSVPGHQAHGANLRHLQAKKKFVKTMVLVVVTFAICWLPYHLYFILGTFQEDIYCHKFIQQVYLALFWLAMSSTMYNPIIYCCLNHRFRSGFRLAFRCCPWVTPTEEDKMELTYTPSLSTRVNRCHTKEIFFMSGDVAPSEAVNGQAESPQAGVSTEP
Description: as §1
as §2, with “The ratios in the presence of test compound and/or standards were compared to the ratios for control samples (i.e. no stimulating agonist).” left out

NK1 receptor [2] = biological target: T3, NK1 receptor (Cavia porcellus, UniProt P30547); experiment: Antagonism of SP-induced plasma protein extravasation in guinea pig trachea; type: in vivo
T3 construct: evaluated in guinea pig lungs; tissue Keystone Biologicals, Cleveland, OH; host or cells: guinea pig lung
Description: SP-induced protein leakage through postcapillary venules was assessed by measuring Evans Blue dye accumulation in guinea pig trachea. Animals were anesthetized with pentobarbital then injected with Evans Blue dye (20 mg/kg, i.v., prepared in 0.9% NaCl solution). One minute after dye administration, the antagonist was administered (i.v.) followed by SP (0.3 nmole/kg, i.v.) and, after 5 min, excess dye removed from the circulation by transcardiac perfusion with 50 ml 0.9% NaCl solution. The trachea and primary bronchi were removed, blotted dry and weighed. Dye quantitation was performed spectrophotometrically ([…]) after extracting tissues in formamide for 24 hr at 50° C.. Values were subtracted from background (dye only, no agonist). ED50 (dose of compound which inhibits SP-induced plasma protein extravasation by 50%) was calculated from linear regression analysis.

T1 sequence (P25103 whole entry): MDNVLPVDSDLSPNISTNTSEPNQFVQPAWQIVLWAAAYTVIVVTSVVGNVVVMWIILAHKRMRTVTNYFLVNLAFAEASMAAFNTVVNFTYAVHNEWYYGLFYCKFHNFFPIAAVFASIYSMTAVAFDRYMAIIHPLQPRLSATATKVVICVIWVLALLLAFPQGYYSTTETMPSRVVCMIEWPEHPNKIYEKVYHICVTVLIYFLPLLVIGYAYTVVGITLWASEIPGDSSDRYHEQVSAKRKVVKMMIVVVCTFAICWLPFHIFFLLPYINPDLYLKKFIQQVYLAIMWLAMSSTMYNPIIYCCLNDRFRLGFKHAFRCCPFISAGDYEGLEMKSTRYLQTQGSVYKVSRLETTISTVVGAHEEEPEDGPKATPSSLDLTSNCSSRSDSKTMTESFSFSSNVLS
T3 sequence (P30547 whole entry): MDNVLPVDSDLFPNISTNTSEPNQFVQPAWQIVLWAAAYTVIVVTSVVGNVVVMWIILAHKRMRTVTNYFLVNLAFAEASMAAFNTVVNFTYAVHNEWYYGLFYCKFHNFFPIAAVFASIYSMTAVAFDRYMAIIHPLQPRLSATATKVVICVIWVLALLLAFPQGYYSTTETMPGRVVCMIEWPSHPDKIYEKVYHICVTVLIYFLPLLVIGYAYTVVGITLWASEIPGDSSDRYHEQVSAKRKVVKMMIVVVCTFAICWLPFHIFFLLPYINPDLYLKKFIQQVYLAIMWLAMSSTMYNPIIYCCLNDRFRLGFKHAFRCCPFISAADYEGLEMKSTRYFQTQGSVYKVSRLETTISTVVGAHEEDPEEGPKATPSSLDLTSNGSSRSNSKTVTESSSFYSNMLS

SMILES	relative antagonism of NK1 and NK2 receptors (in words) (NK1 receptor [1]; PI turnover, UC11 (NK1) versus SKLKB82#3 (NK2) cells)	Kb (NK1 receptor [1]; UC11 cells, SP, Schild analysis, mean (95% confidence limits), 2-3 experiments, read-out: NK-1 receptor pA2 (converted))	Kb (NK2 receptor)	NK-2 receptor slope (NK2 receptor; SKLKB82#3 cells, NKA, Schild slope, mean (95% confidence limits))	antagonism of SP-induced PI turnover (in words) (NK1 receptor [1]; UC11 cells, FIG. 1a)	agonist activity (stimulation of PI turnover by compound alone) (NK1 receptor [1]; UC11 or SKLKB82#3 cells)	antagonism of NKA-induced PI turnover (in words) (NK2 receptor; SKLKB82#3 cells, FIG. 1b)	relative potency against SP-induced plasma protein extravasation (in words) (NK1 receptor [2]; i.v.)	antagonism of SP-induced plasma protein extravasation (in words) (NK1 receptor [2]; i.v., FIG. 2)	ED50 (NK1 receptor [2]; guinea pig, iv, i.v. 2 min prior to SP, mean (95% confidence limits), at least 3 doses, at least 4 animals per dose, read-out: ED50 for inhibition of SP-induced plasma protein extravasation)
COc1cc(C(=O)N2CCC(CCN3CCC(C(N)=O)(c4ccccc4)CC3)(c3ccc(Cl)c(Cl)c3)C2)cc(OC)c1OC (single isomer, unassigned; (+)) [Example 20, (+)-1-[2-[3-(3,4-dichloro-phenyl)-1-(3,4,5-trimethoxy-benzoyl)-pyrrolidin-3-yl]-ethyl]-4-phenylpiperidine-4-carboxylic acid amide]	antagonized both NK1 and NK2 receptors by nearly equivalent amounts	6.46 nM	2.14 nM	1.00						
COc1cc(C(=O)N2CCC(CCN3CCC(C(N)=O)(c4ccccc4)CC3)(c3ccc(Cl)c(Cl)c3)C2)cc(OC)c1OC (centres unmarked) [Example 3, 1-[2-[3-(3,4-dichloro-phenyl)-1-(3,4,5-trimethoxy-benzoyl)-pyrrolidin-3-yl]-ethyl]-4-phenyl-piperidine-4-carboxylic acid amide]					antagonizes both NK1 (on UC11 cells) and NK2 (on SKLKB82#3) receptors in a dose-dependent manner	no agonist activity	antagonizes both NK1 (on UC11 cells) and NK2 (on SKLKB82#3) receptors in a dose-dependent manner	equipotent NK-1 receptor antagonists	dose related antagonism of SP-induced plasma protein extravasation in guinea pig trachea	
COc1cc(C(=O)N2CCC(CCN3CCC(C(N)=O)(c4ccccc4)CC3)(c3ccc(Cl)c(Cl)c3)C2)cc(OC)c1OC.Cl (single isomer, unassigned; (+)) [Example 20A, (+)-1-[2-[3-(3,4-dichloro-phenyl)-1-(3,4,5-trimethoxy-benzoyl)-pyrrolidin-3-yl]-ethyl]-4-phenyl-piperidine-4-carboxylic acid amide hydrochloride]								equipotent NK-1 receptor antagonists		0.2 mg/kg
